Data reported in patent US12612406B2, “Cytisine salts” (Achieve Pharma UK Limited, priority 2017, dated 2026).

Legend:
[1] = Screening of cytisine salt formation with acid salt formers; type: physicochemical; details: equimolar acid, 40° C. one hour, cooled to ambient
Description: Stock solutions of acid salt formers were prepared in the carrier solvents and having the molarities detailed in the following Table 1 below:
Stock solutions of cytisine API (non-synthetic) were also prepared in CH3CN and in Me-THF. 2.4 g of cytisine was dissolved in 60 ml of 2-Me-THF heated to a temperature of 60° C. 2.4 g of cytisine was dissolved in 24 ml of CH3CN heated to a temperature of 40° C.
200 ml capacity tubes heated to 40° C. were charged with 2 ml or 5 ml of the cytisine stock solution. The acid stock solutions were then added to the heated tubes in equimolar amounts. The solutions were held at 40° C. for one hour and then allowed to cool to ambient temperature (˜18° C.) for 18 hours.
Filtration of the obtained solids was then carried out using a PTFE fritted column and the obtained solids were dried at 50° C. for 48 hours. The properties of the obtained products were then analysed, and the outcome of this screen and the properties of the obtained products are summarised in Table 2 below: […]

[2] = Lactose compatibility: stability of cytisine and cytisine salts with lactose on storage, cytisine by HPLC; type: physicochemical; details: 25° C./60% RH and 40° C./75% RH, 7 and 14 days
Description: The stability of formulations of cytisine and the present cytisine salts with lactose was investigated. Samples were stored at 25° C. and 60% relative humidity (RH) and at 40° C. and 75% RH and evaluated after 7 and 14 days. […] Thus, these salts effectively improve the stability of cytisine and facilitates its formulation with compositions comprising lactose.

| Compound | Assessment (salt preparation) ([1]; API stock solution in 2-MeTHF) | Assessment (salt preparation) ([1]; API stock solution in CH3CN) | Degradation rate of cytisine compared with free base form [2] |
| --- | --- | --- | --- |
| CC(=O)O [Acetate] | Secondary precipitations, unstable salt | Secondary precipitations, unstable salt | – |
| O=C(O)c1cc(O)ccc1O.O=c1cccc2n1C[C@@H]1CNC[C@H]2C1 [Gentisate, Cytisine Gentisate] | Excellent salt profile | Excellent salt profile | degraded at a substantially lower rate |
| O=C(O)C=CC(=O)O.O=c1cccc2n1CC1CNCC2C1 (stereo not shown) [Maleate, Cytisine Maleate] | Excellent salt profile | Excellent salt profile | – |
| CS(=O)(=O)O.O=c1cccc2n1C[C@@H]1CNC[C@H]2C1 [Mesylate, Cytisine Mesylate] | Excellent salt profile | Excellent salt profile | degraded at a substantially lower rate |
| Ascorbate | Secondary precipitations, unstable salt | Secondary precipitations, unstable salt | – |
| Benzoate | Failed to yield solid | Failed to yield solid | – |
| Glucuronate | Failed to yield solid | Failed to yield solid | – |
